Results reported in patent publication US9044474B2, “Compositions and methods for increasing drug efficacy in cancer” (The Ohio State University, priority 2010, dated 2015).
Structures can show the parent of a compound that is named as a salt.

Tests used:
CLL patients = CLL patients treated with flavopiridol; cited from earlier work
p62 = p62 immunoblot in samples from CLL patients treated with flavopiridol; format: in vivo, human; details: samples at 4.5 hours post flavopiridol infusion
Method: In this trial, CLL cells were collected pre- and post-therapy 4.5 hours, day 1 (n=16). By confocal fluorescence microscopy, both increased autophagosome formation (P=0.0011) and fusion with lysosomes is observed (FIG. 3F). […] The level of autophagy, as assessed by LC3 fluorescence intensity, was overall greater in non-responders versus responders in both pre- and post-treatment samples (P=0.018); however, the increase in intensity at 4.5 hours post- vs. pre-treatment was only slightly higher for non-responders compared to responders (fold change of 2.51 vs. 1.82, P=0.3445). […] Collectively, these studies provide evidence that our in vitro observations are relevant to the clinical setting.
Proteins extracted from whole cell lysates (50 μg/lane) were separated on polyacrylamide gels and transferred on nitrocellulose membrane. Antibodies used for immunoblots included LC3, IRE1α, TRAF2, PI3K III, ATG4C, ATG5-12, UVRAG, Beclin-1 (Cell Signaling, Boston, Mass.), GAPDH, Nrf2, ASK1, ULK1 (Santa Cruz Biotechnology), and Bif-1, ATG14-Barkor (Sigma-Aldrich, St Louis, Mo.). Species-appropriate secondary antibodies were obtained from BioRad Laboratories (Hercules, Calif.). Following antibody incubations, proteins were detected using a chemiluminescent substrate (BioRad Laboratories). […] Quantification was done using FluorChem Q (Alpha Innotech, San Leandro Calif.).

IRE1-ASK1-TRAF2 complex = assay: Co-immunoprecipitation of IRE1-ASK1-TRAF2 complex in samples from flavopiridol-treated CLL patients; parameters: species or system human; details: CLL patient cells in vivo following flavopiridol infusion
Method: (§1) Proteins extracted from whole cell lysates (50 μg/lane) were separated on polyacrylamide gels and transferred on nitrocellulose membrane. Antibodies used for immunoblots included LC3, IRE1α, TRAF2, PI3K III, ATG4C, ATG5-12, UVRAG, Beclin-1 (Cell Signaling, Boston, Mass.), GAPDH, Nrf2, ASK1, ULK1 (Santa Cruz Biotechnology), and Bif-1, ATG14-Barkor (Sigma-Aldrich, St Louis, Mo.). Species-appropriate secondary antibodies were obtained from BioRad Laboratories (Hercules, Calif.). Following antibody incubations, proteins were detected using a chemiluminescent substrate (BioRad Laboratories). For co-immunoprecipitations, TrueBlot beads (eBiosciences, San Diego, Calif.) and One-hour IP Western kit (GenScript, Piscataway, N.J.) were used according to manufacturer protocols. Quantification was done using FluorChem Q (Alpha Innotech, San Leandro Calif.).

JNK1 and p38MAPK [1] = assay: Immunoblot of phosphorylated JNK1 and p38MAPK in CLL cells in vitro; format: cell-based, human; details: flavopiridol 2 μM, thapsigargin 1 μM, F-ara-A 5 μM
Method: as §1

CLL cells = assay: Intracellular calcium in CLL cells; format: cell-based, human; details: CLL cells treated with flavopiridol
JNK1 and p38MAPK [2] = assay: Immunoblot of phosphorylated JNK1 and p38MAPK in samples from CLL patients treated with flavopiridol; format: in vivo, human; details: samples 4.5 hours following flavopiridol infusion
Method: as §1

XBP1, IRE1, GRP78, CHOP = assay: Real-time RT-PCR of ER stress genes in CLL cells from patients undergoing flavopiridol treatment; format: in vivo, human; details: CLL patients n=10, 4.5 hour
Method: RNA was extracted using TRIzol reagent (Invitrogen, Carlsbad, Calif.) and purified using QIAGEN RNeasy columns (Qiagen, Valencia, Calif.). cDNA was prepared with SuperScript First-Strand Synthesis System (Invitrogen). Real-time PCR was performed using primers purchased from Applied Biosystems. Detection was performed using an ABI Prism 7700 sequence detection system (Applied Biosystems). Average relative expression (treatment compared with vehicle) was normalized to the internal control gene CD52. Primers to detect spliced XBP1 were designed using Primer 3 software and purchased from IDT. Samples were analyzed on 10% acrylamide gels.

[3] = tested on: ATF6 at GRP78 promoter region; assay: ChIP assay of ATF6 at GRP78 promoter in cells from CLL patients undergoing flavopiridol treatment; format: in vivo, human; details: CLL patient samples before and 4.5 hour after flavopiridol infusion
Method: In brief, cells were treated with 37% formaldehyde to ensure crosslinking of proteins to DNA. Cells were lysed and sonicated to shear the chromatin to fragments of approximately 500 bp. Sheared chromatin was incubated with ATF6 antibody (LifeSpan Biosciences, Seattle, Wash.), followed by precipitation, washing and reversing of the crosslinks Purified DNA was then analyzed by real-time quantitative PCR using primers to the GRP78 promoter region. Primers were designed using Primer 3 software and purchased from IDT (Coralville, Iowa).

Question: What does the source list for `CN1CC[C@H](c2c(O)cc(O)c3c(=O)cc(-c4ccccc4Cl)oc23)[C@H](O)C1` [flavopiridol, (cis-5,7-dihydroxy-2-(2-chlorophenyl)-8-[4-(3-hydroxy-1-methyl)-piperidin-yl]-1-benzopyran-4-one)hydrochloride]?
Answer: CLL patients in whom drug resistance is usually observed (CLL patients): approximately 40%; p62 protein expression (p62): a decrease in protein expression; IRE1 and ASK1 association with TRAF2 (IRE1-ASK1-TRAF2 complex): increase in IRE1 and ASK1 association with TRAF2; phosphorylation of JNK1 and p38MAPK (JNK1 and p38MAPK [1]): induced the phosphorylation of both JNK1 and p38MAPK; intracellular calcium (CLL cells): increase of intracellular calcium; CLL patients with JNK1 and p38MAPK phosphorylation (JNK1 and p38MAPK [2]): five of ten; expression of XBP1, IRE1 and GRP78 genes, pre-treatment vs end of infusion (XBP1, IRE1, GRP78, CHOP): significant increases in XBP1, IRE1 and GRP78 genes; binding of GRP78 promoter region by ATF6 [3]: results were similar
